Laboratory results taken from article PMC8159160 (Journal of medicinal chemistry, 2021).

Test: in vivo
Conditions: mouse, plasma; for clearance: iv, 15 mg/kg

| clearance [mL/min/kg] | AUC (po, 50 mg/kg) [µM·h] | SMILES |
| --- | --- | --- |
| 86.7 | 2.9 | CCN1C(=O)[C@@H](NC(=O)c2cccc(C)c2)[C@@H](c2ccc(F)cc2)c2c(C)nn(-c3ccccc3)c21 (relative stereo) [Compound 2, N-(rel-(4S,5S)-7-ethyl-4-(4-fluorophenyl)-3-methyl-6-oxo-1-phenyl-4,5,6,7-tetrahydro-1H-pyrazolo[3,4-b]pyridin-5-yl)-3-methylbenzamide] |
| 20 | – | CCN1C(=O)[C@@H](NC(=O)c2cccc(C(F)(F)F)c2)[C@@H](c2ccc(F)cc2)c2c(CN)nn(-c3ccccc3)c21 (relative stereo) [Compound 40, N-(rel-(4S,5S)-3-(aminomethyl)-7-ethyl-4-(4-fluorophenyl)-6-oxo-1-phenyl-4,5,6,7-tetrahydro-1H-pyrazolo[3,4-b]pyridin-5-yl)-3-(trifluoromethyl)benzamide] |
